Data reported in PMC13136073, “Discovery of 4‐Quinazolinone‐Containing Phenylalanine Derivatives as Potent, Resistant‐Tolerant HIV Capsid Inhibitors” (MedComm, 2026).

Assay: Stability in human liver microsomes
Type: in vitro ADME
Details: HLM, scaled

O=C(O)Cc1ccccc1Nc1c(Cl)cccc1Cl [Diclofenac, diclofenac]
CLint(liver): 200.0 mL/min/kg
